The pKa sets of Baltruschat and Czodrowski (2020)

Going from O=S(=O)(c1ccccc1)n1cc(-c2cccc3nccn23)c2ccccc21 to c1ccc(-c2cnc3c(-c4ccnc5ccccc45)cnn3c2)cc1, the pKa falls from 6.4 to 4.9.

First: Nc1nccc(N2CCc3ccc(Br)cc32)n1
Second: N#Cc1ccc2ccn(-c3ccnc(N)n3)c2c1
The pKa of the first is higher: 6.9 for the first, 4.6 for the second.

C1=C(c2ccccc2)N2CC[NH+]=C2c2ccccc21 and Fc1ccccc1C1=Cc2ccccc2C2=[NH+]CCN12 are within 0.2 log units of each other in pKa: 10.3 for the first, 10.2 for the second.

O=C(Nc1nnc(-c2ccc(F)cc2)o1)c1ccc(Cl)s1 and O=C(Nc1nnc(-c2cccs2)o1)c1cccc(C(F)(F)F)c1 are within 0.2 log units of each other in pKa: 5.8 for the first, 5.7 for the second.

Compared with Cc1csc2ncnc(NCCc3ccc(Cl)cc3)c12, Cc1nc2ccccn2c1C(=O)NCc1ccc(Cl)cc1 is higher in pKa: 3.9 for the first, 5.1 for the second.

Compared with O=Cc1cc(Br)cc(Br)c1O, COc1ccc(Br)c(C=O)c1O is higher in pKa: 5.3 for the first, 7.5 for the second.

Going from Cc1nc(-c2ccc(OCC(C)C)c(C#N)c2)sc1C(=O)[O-] to O=C([O-])CSc1ncnc2cc(-c3ccc(Br)cc3)sc12, the pKa falls from 4 to 3.5.

Going from O=c1ccc2nc3ccc(O)cc3oc-2c1 to Nc1ccc(-c2cc3ccccc3oc2=O)cc1, the pKa falls from 5.8 to 3.9.

O=c1[nH]c2ccc(-c3ccc(F)cc3)cc2cc1[O-] and O=c1[nH]c2cc(-c3ccc(F)cc3)ccc2cc1[O-] are within 0.2 log units of each other in pKa: 8.2 for the first, 8.1 for the second.

Cc1cc(C)nc(N2CCC3(CCCN(Cc4nn(C)nc4-c4ccccc4)C3=O)CC2)n1 and Cc1cc(C)nc(N2CCC3(CCCN(Cc4cn(C)c5ccccc45)C3=O)CC2)n1 are the same in pKa: 4.7 for the first, 4.7 for the second.

First: Cc1cc(C)nc(N2CCC3(CCCC(=O)N3Cc3cccc4[nH]ccc34)CC2)n1
Second: O=C1CCCC2(CCN(c3cnc4ccccc4n3)CC2)N1Cc1c[nH]c2ccccc12
The pKa of the first is higher: 4.4 for the first, 3.3 for the second.

Going from COCc1nc2ccccc2n1Cc1ccc(C(C)(C)C)cc1 to COc1ccc(CNC(=O)c2c(C)nc3ccccn23)cc1, the pKa rises from 4.2 to 5.

First: O=S(=O)(Nc1cc(F)ccc1F)c1ccc2[nH]c3c(c2c1)CCCC3
Second: CNC(=O)c1nc(-c2ccc(Cl)c(S(=O)(=O)Nc3cccc(F)c3C)c2)cnc1N
The pKa of the first is lower: 7.3 for the first, 7.6 for the second.

First: CCc1ccc(/C=C2/SC(=S)[N-]C2=O)cc1
Second: CCc1ccc(-c2cn3c([nH+]2)SCC3)cc1
The pKa of the first is higher: 5.8 for the first, 4.8 for the second.

O=C1N(Cc2c[nH]c3ccccc23)CCCC12CCN(c1cnc3ccccc3n1)CC2 and O=C1N(Cc2cccc3[nH]ccc23)CCCC12CCN(c1cnc3ccccc3n1)CC2 are within 0.2 log units of each other in pKa: 3.9 for the first, 3.75 for the second.

O=C([O-])c1ccccc1Nc1cc(F)cc(C(F)(F)F)c1 and O=C([O-])c1ccccc1Nc1cc(C(F)(F)F)cc(C(F)(F)F)c1 are the same in pKa: 3.9 for the first, 3.9 for the second.

COc1cccc(-c2cnc(N)c(-c3ccc(C(N)=O)cc3)c2)c1 and NC(=O)c1ccc(-c2cc(-c3ccccc3)cnc2N)cc1 are within 0.2 log units of each other in pKa: 5.3 for the first, 5.4 for the second.

Compared with O=C(Cc1ccccc1)N1CCCC12CCN(c1cnc3ccccc3n1)CC2, O=C1CCCC2(CCN(c3cnc4ccccc4n3)CC2)N1Cc1ccccc1 is lower in pKa: 3.6 for the first, 3.3 for the second.

Compared with CCOC(=O)N1CCC(C)(C[NH+]2CCC3(CC2)CN(S(C)(=O)=O)c2ncccc23)CC1, CCc1ccccc1N(CC)C(=O)C1CCN(c2ncnc3c2nc2n3CCCCC2)CC1 is lower in pKa: 8.5 for the first, 3.9 for the second.

First: COc1ccc2c(c1)C[NH+](C)CCS2
Second: COc1ccc2c(c1)CN(C(=O)CC[NH+]1CCC(Cc3ccccc3)CC1)CCS2
The pKa of the first is lower: 7.5 for the first, 8.3 for the second.

First: O=c1[nH]c2cc(C(F)(F)F)ccc2n1Cc1cc(Cl)ccc1O
Second: O=C(Nc1cccc(Cl)c1)c1ccc(Cl)cc1O
The pKa of the first is higher: 9.75 for the first, 6.3 for the second.

Compared with Cc1ccc(OC(C)(C)C(=O)N[C@@H](C)[C@@H](Cc2ccc(OCCF)cc2)c2cccc(C#N)c2)nc1, C=CC(=O)Nc1cccc(Nc2nc(Nc3ccc(OCCOC)cc3)ncc2F)c1 is higher in pKa: 2.7 for the first, 4.8 for the second.

Compared with COc1ccc(-c2nc(Nc3ccc(F)cc3F)c3ccccc3n2)cc1OC, COc1ccc(NS(=O)(=O)c2ccc(-n3cccn3)cc2)cc1OC is higher in pKa: 5.2 for the first, 8.3 for the second.

Going from COc1ccc(/C=C/C(=O)N2CCN(c3ccccn3)CC2)cc1 to COc1ccc(C2=C([O-])c3ccccc3C2=O)cc1, the pKa falls from 5.3 to 4.1.

C1=C(c2ccc3ccccc3c2)N2CC[NH+]=C2c2ccccc21 and C1=C(c2cccc3ccccc23)N2CC[NH+]=C2c2ccccc21 are within 0.2 log units of each other in pKa: 10.2 for the first, 10.3 for the second.

Going from CN1C(=O)Cn2cc(C(=O)NCc3ccc(Cl)cc3)c(=O)c3cc(C[NH+]4CCOCC4)cc1c32 to O=C(NCc1ccc(Cl)cc1)c1cn2c(CCO)cc3cc(C[NH+]4CCOCC4)cc(c1=O)c32, the pKa falls from 6.2 to 5.9.

Going from CC(=O)n1cc(C2=C([O-])CC(C)(C)CC2=O)c2ccccc21 to Cn1cc(C(=O)[O-])c(=O)c2ccccc21, the pKa rises from 5.2 to 6.5.

First: Cc1[nH]c2ccccc2c1CC[NH2+]Cc1ccc(CCC(=O)N=O)cc1
Second: COc1ccc(N)c2ccccc12
The pKa of the first is higher: 8.6 for the first, 4.9 for the second.

Going from COc1cccc2[nH]cc(-c3ccnc(N)n3)c12 to N#Cc1ccc2[nH]cc(-c3ccnc(N)n3)c2c1, the pKa falls from 5.52 to 5.3.

First: Cc1ccc(NC(=O)c2ccccc2)cc1Nc1nccc(-c2cccnc2)n1
Second: Cc1ccc(NC(=O)c2cccc(C(C)(C)C#N)c2)cc1Nc1ccc2ncn(C)c(=O)c2c1
The pKa of the first is higher: 3.9 for the first, 3.6 for the second.

First: COC(=O)Cn1c(C[NH+]2CCC(Cc3ccccc3)CC2)nc2c1c(=O)n(C)c(=O)n2C
Second: O=C1CCN(Cc2ccccc2)C(=O)N1
The pKa of the first is lower: 6 for the first, 11.7 for the second.

First: c1ccc(N2CC[NH2+]CC2)cc1
Second: O=C1CN(c2ccccc2)C(=O)N1
The pKa of the first is higher: 9 for the first, 8.3 for the second.

Going from CCNC(=O)OC1CCN(c2nncc3cc(OC)c(OC)cc23)CC1 to O=C(Nc1ccc(F)c(Cl)c1)C1CCN(c2ncccn2)CC1, the pKa falls from 5.4 to 3.8.

Compared with COc1cccc(-c2cccc(CCC3(C)CC(=O)N(C)C(N)=[NH+]3)c2)c1 (centres undefined), COc1ccccc1S(=O)(=O)Nc1ccc2c(c1)CN(C)C(=O)N2 is lower in pKa: 9.4 for the first, 8.65 for the second.

First: CCS(=O)(=O)c1ccc(CC(=O)Nc2nc(-c3ccccc3)c(C(=O)c3ccccc3)s2)cc1
Second: O=C(Nc1ccccc1C(=O)[O-])c1ccc(-c2ccccc2)cc1
The pKa of the first is higher: 7.9 for the first, 3.2 for the second.

COc1cc(Nc2ccccc2C(=O)[O-])cc(OC)c1 and N#Cc1cccc(Nc2ccccc2C(=O)[O-])c1 are within 0.2 log units of each other in pKa: 4 for the first, 3.9 for the second.

Compared with CC(C(=O)[O-])c1ccc2c(c1)Cc1ccccc1-2 (centres undefined), O=C([O-])COc1ccc2c(c1)Cc1ccccc1-2 is lower in pKa: 4.3 for the first, 3 for the second.

Compared with CC(C(=O)[O-])c1ccc2c(c1)C(=O)c1ccccc1CS2 (centres undefined), O=C(NO)C1c2ccccc2-c2ccccc21 is higher in pKa: 4.1 for the first, 8.7 for the second.

First: Nc1nc(-c2ccccn2)nc(N)c1Cc1ccc(Cl)cc1Cl
Second: Nc1ncnc2ccc(-c3cccc(F)c3)nc12
The pKa of the first is higher: 5.6 for the first, 4.7 for the second.

CS(=O)(=O)c1ccc(-c2cnc(N)c(-c3ccc(C(F)(F)F)nc3)c2)cc1 and CS(=O)(=O)c1ccc(-c2cnc(N)c(-c3ccc(C(F)(F)F)cc3)c2)cc1 are within 0.2 log units of each other in pKa: 4.8 for the first, 4.9 for the second.

Going from Nc1ncnc2ccc(-c3ccnc(F)c3)nc12 to Fc1cccc(-c2c[nH]c3ncccc23)c1, the pKa falls from 4.5 to 4.1.

First: O=C(Nc1ccc(Cl)cc1)NS(=O)(=O)c1ccc(Cl)cc1
Second: O=C(Nc1cccc(Cl)c1)c1ccccc1O
The pKa of the first is lower: 3.4 for the first, 7.2 for the second.

First: O=C1N(Cc2c[nH]c3ccccc23)CCCC12CCN(c1ncccn1)CC2
Second: COc1ccc2[nH]cc(CN3CCCC4(CCN(c5nc(C)cc(C)n5)CC4)C3=O)c2c1
The pKa of the first is lower: 3.8 for the first, 4.65 for the second.

Compared with c1ccc(Nc2nc(NC3CCCCC3)nc3ccccc23)cc1, c1ccc(Nc2ncc3ccccc3n2)cc1 is lower in pKa: 8 for the first, 3.6 for the second.

Compared with C[NH+](C)CCSc1nc2ccccc2cc1-c1ccccc1, N#Cc1c(-c2ccccc2)nc(SCc2ccccc2)[nH]c1=O is lower in pKa: 8.4 for the first, 4.5 for the second.

Going from Cc1cc(C(=O)C[NH+]2CCCC2)c(C)n1-c1ccc(F)cc1 to Cc1ccc(C)n1-c1ccc(SCC(=O)[O-])cc1, the pKa falls from 9 to 3.5.

Compared with CC(=O)Nc1ccc(Nc2ncnc3c2c(-c2ccccc2)cn3-c2ccccc2)cc1, CC(NC(=O)c1ccccc1/N=C/c1c(O)ccc2ccccc12)c1ccccc1 (centres undefined) is higher in pKa: 3.9 for the first, 6.9 for the second.

First: CCC1(c2ccccc2)C(=O)NC(=O)N(C)C1=O (centres undefined)
Second: O=c1[nH]c2ccccc2c(=O)n1CCCl
The pKa of the first is lower: 7.6 for the first, 10 for the second.

Compared with NC(=O)c1cccc(-c2cc(Nc3ccc(OC(F)(F)F)cc3)ncn2)c1, O=C([O-])c1ccc(NCc2cccc(Oc3ccccc3)c2)cn1 is higher in pKa: 4 for the first, 4.45 for the second.

Compared with N#Cc1csc(NC(=O)Nc2ccc(Cl)c(Cl)c2)n1, N#Cc1cc(C[NH+]2CCC(Nc3ncnc4sc(Cl)cc34)CC2)ccc1F is lower in pKa: 8.3 for the first, 7 for the second.

Going from O=C(NC(=O)c1ccccc1)c1ccccc1 to O=C([O-])c1ccc(-c2nn(C(=O)c3c(Cl)cccc3Cl)c3ccccc23)cc1, the pKa falls from 9.9 to 3.2.

Cc1cc(C)nc(N2CCC3(CCCN(Cc4ccccc4-c4nc(C)no4)C3=O)CC2)n1 and COC(=O)c1ccc2[nH]cc(CN3CCCC4(CCN(c5nc(C)cc(C)n5)CC4)C3=O)c2c1 are the same in pKa: 4.8 for the first, 4.8 for the second.

Going from COc1ccc(-c2cnc3c(-c4cccc5ncccc45)cnn3c2)cc1 to COc1cccc(-c2nnc3n(Cc4ccccc4Cl)c(=O)c4ccccc4n23)c1O, the pKa rises from 4.4 to 8.4.

First: C[C@H](C#Cc1ccc(Cc2ccc(F)cc2)s1)N(O)C(N)=O
Second: CC(c1cc2ccccc2s1)N(O)C(N)=O (centres undefined)
The pKa of the first is higher: 10.4 for the first, 10.2 for the second.

First: C1=CN2CC(c3ccccc3)[NH+]=C2S1 (centres undefined)
Second: Cc1cc(N)nc2ccccc12
The pKa of the first is higher: 8.7 for the first, 7.9 for the second.

First: Fc1ccc2c(/C=C/c3cccnc3)c[nH]c2c1
Second: O=c1cc(CSc2cccc(F)c2F)nc2cc[nH]n12
The pKa of the first is lower: 5.3 for the first, 7.35 for the second.

Going from Ic1cccc(-c2nn[n-]n2)c1 to Cc1ccc2nc(N)ccc2c1, the pKa rises from 3.7 to 7.6.

Compared with Nc1cccc2c1C(=O)N(C1CCC(=O)NC1=O)C2=O (centres undefined), Cc1ccc2c(c1)C(=O)C(=O)N2 is lower in pKa: 10.8 for the first, 9.8 for the second.

First: CCc1ncnc(NC(CC)c2ccc(Oc3ccc(F)cc3)cc2)c1Br (centres undefined)
Second: CCc1cc(Br)ccc1S(=O)(=O)NCc1ccccc1
The pKa of the first is lower: 4.3 for the first, 10.6 for the second.

Compared with Nc1n[nH]c2cc(Br)ccc12, Cc1csc2ccc3[nH]c4c(c3c12)C[NH+](C)CC4 is higher in pKa: 2.9 for the first, 8.6 for the second.

Cc1cc(C)c2cc(C(=O)NC3CC[NH+](C)CC3)[nH]c2c1 and CNC(=O)c1ccc(Oc2ccc3c(c2)CC[NH+](C2CCC2)CC3)nc1 are within 0.2 log units of each other in pKa: 8.5 for the first, 8.6 for the second.

Going from Cc1ccc(C)c(CN2C(=O)CCCC23CCN(c2cnc4ccccc4n2)CC3)c1 to Clc1ccc2c(c1)[NH+]=C(N1CCCCC1)c1ccccc1N2, the pKa rises from 3.4 to 7.2.
